Like-named read-outs stand apart in the source and are kept apart here.
Legend:
KRAS^G12D/cRAF = KRAS^G12D/cRAF (Homo sapiens, UniProt P01116, G12D); assay: KRAS G12D/cRAF binding test (Alphalisa); conditions: His-tagged KRAS G12D with GMPPNP, GST-tagged cRAF
Method: The compound was dissolved in 100% DMSO at a starting concentration of 5 mM and diluted in DMSO with a 3-fold serial dilution method for a total of 8 concentration points. 1 μL of the compound or DMSO at each concentration point was added into 99 μL of the experimental buffer to obtain 10× stock solution.
(§1) The ratio for each compound concentration was calculated from the signal of the DMSO control group contained in each assay plate and the Alphalisa signal in each compound well. The compound concentration required for inhibitory concentration at 50% (IC50) was determined using a four-parameter logarithmic dose-response equation by testing the concentration of the compound and the value of the ratio. The endpoint value (IC50) of the reference compound was assessed in each experiment as a quality control measure. If the endpoint value is within three times the expected value, the experiment may be considered acceptable.

AsPC-1 = assay: Anti-proliferative 2D CTG assay, AsPC-1; format: cell-based; conditions: Homo sapiens, ASPC1, 96 h, AsPC-1 cells, 4 days incubation, read-out: AsPC-1 cell IC50
Method: (§2) 1.1 Day 0 Cell Culture and Plating
(§3) Cells in a logarithmic growth phase were harvested and the cells were counted by using a […]. Cell viability was tested by using a trypan blue exclusion method to ensure that cell viability was above 90%. The cell concentration was adjusted to the desired final density, and 90 μL of cell suspension was added to a 96-well plate, then the cells were incubated overnight at 37° C., 5% CO2 and 95% humidity.
(§4) 10 μL PBS was added to each well of the TO plate containing cells. The CTG reagent was thawed and the plate was equilibrated to room temperature for 30 minutes. The CTG solution of 50 µL/well was added to each well. The cells were lysed by shaking on an orbital shaker for 5 minutes. The plate was left at room temperature for 20 minutes to stabilize the luminescence signal. The TO fluorescence signal value was read.
(§5) From the 10 mM stock solution, with a ratio of 1:5, 9-point serial dilutions were performed. The 10× medium containing the compound was transferred into corresponding wells of the 96 wells. The final maximum compound concentration was […] and the final DMSO concentration was 0.1%. The 96-well plate was placed in a 37° C. incubator and incubated for 4 days.
(§6) 50 μL/well of detection reagent (CTG) was added to the cells, and the signal was read in an Envision machine.
as §1, with “The percent inhibition (%) at” for “The ratio for”, “signal in” for “signal of”, “the HPE and ZPE” for “the DMSO”, “control wells and the fluorescence signal in the individual compound wells included” for “control group contained”, “assay plate. […]” for “assay plate and the Alphalisa signal in each compound well.”, “the inhibition percentage value.” for “the value of the ratio.”

AGS = assay: Anti-proliferative 2D CTG assay, AGS; format: cell-based; conditions: AGS cells, 4 days incubation, read-out: AGS cell IC50
Method: as §2, §3, §4, §5, §6
as §1, with “The percent inhibition (%) at” for “The ratio for”, “signal in” for “signal of”, “the HPE and ZPE” for “the DMSO”, “control wells and the fluorescence signal in the individual compound wells included” for “control group contained”, “assay plate. […]” for “assay plate and the Alphalisa signal in each compound well.”, “the inhibition percentage value.” for “the value of the ratio.”

HPAC = assay: Anti-proliferative 2D CTG assay, HPAC; format: cell-based; conditions: Homo sapiens, 96 h, HPAC cells, 4 days incubation, read-out: HPAC cell IC50
Method: as §2, §3, §4, §5, §6
as §1, with “The percent inhibition (%) at” for “The ratio for”, “signal in” for “signal of”, “the HPE and ZPE” for “the DMSO”, “control wells and the fluorescence signal in the individual compound wells included” for “control group contained”, “assay plate. […]” for “assay plate and the Alphalisa signal in each compound well.”, “the inhibition percentage value.” for “the value of the ratio.”

LS513 = assay: Anti-proliferative 2D CTG assay, LS513; format: cell-based; conditions: Homo sapiens, LS-513, 96 h, LS513 cells, 4 days incubation, read-out: LS513 cell IC50
Method: as §2, §3, §4, §5, §6
as §1, with “The percent inhibition (%) at” for “The ratio for”, “signal in” for “signal of”, “the HPE and ZPE” for “the DMSO”, “control wells and the fluorescence signal in the individual compound wells included” for “control group contained”, “assay plate. […]” for “assay plate and the Alphalisa signal in each compound well.”, “the inhibition percentage value.” for “the value of the ratio.”

[1] = Pharmacokinetic experiment in mice (single PO or IV administration); conditions: male, ICR, mouse, plasma

Sequence of KRAS^G12D/cRAF (P01116 1-188 isoform P01116-2 G12D): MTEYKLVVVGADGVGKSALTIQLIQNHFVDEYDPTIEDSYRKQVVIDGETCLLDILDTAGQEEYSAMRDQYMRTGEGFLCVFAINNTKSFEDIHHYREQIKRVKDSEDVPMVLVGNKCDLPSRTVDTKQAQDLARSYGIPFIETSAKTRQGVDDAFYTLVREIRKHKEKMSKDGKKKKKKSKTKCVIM

| Compound | IC50 (KRAS^G12D/cRAF) [nM] | IC50 (AsPC-1) [nM] | IC50 (AGS; Homo sapiens, AGS, 96 h) [nM] | further results |
| --- | --- | --- | --- | --- |
| C#Cc1c(F)ccc2cc(O)cc(-c3ncc4c(N5C[C@@H]6CC[C@](CC)(C5)N6)nc(OC[C@@]56CCCN5CC(=C)C6)nc4c3F)c12 [Example 20, 4-(4-((1R,5S)-1-ethyl-3,8-diazabicyclo[3.2.1]octan-3-yl)-8-fluoro-2-(((S)-2-methylenetetrahydro-1H-pyrrolizin-7a(5H)-yl)methoxy)pyrido[4,3-d]pyrimidin-7-yl)-5-ethynyl-6-fluoronaphthalen-2-ol] | 3 | 17.2 | 3.1 | – |
| C#Cc1c(F)ccc2cc(O)cc(-c3ncc4c(N5C[C@@H]6CC[C@](COC)(C5)N6)nc(OC[C@@]56CCCN5CC(=C)C6)nc4c3F)c12 [Example 22, 5-ethynyl-6-fluoro-4-(8-fluoro-4-((1R,5S)-1-(methoxymethyl)-3,8-diazabicyclo[3.2.1]octan-3-yl)-2-(((S)-2-methylenetetrahydro-1H-pyrrolizin-7a(5H)-yl)methoxy)pyrido[4,3-d]pyrimidin-7-yl)naphthalen-2-ol] | 2.9 | 14.3 | 21.7 | – |
| C#Cc1c(F)ccc2cc(O)cc(-c3ncc4c(N5C[C@@H]6CC[C@](C7CC7)(C5)N6)nc(OC[C@@]56CCCN5CC(=C)C6)nc4c3F)c12 [Example 29, 4-(4-((1S,5S)-1-cyclopropyl-3,8-diazabicyclo[3.2.1]octan-3-yl)-8-fluoro-2-(((S)-2-methylenetetrahydro-1H-pyrrolizin-7a(5H)-yl)methoxy)pyrido[4,3-d]pyrimidin-7-yl)-5-ethynyl-6-fluoronaphthalen-2-ol] | 25 | 102 | 21 | – |
| C#Cc1c(F)ccc2cc(O)cc(-c3ncc4c(N5C[C@@H]6CC[C@](C7CC7)(C5)N6)nc(OC[C@@]56CCCN5CC(=C(F)F)C6)nc4c3F)c12 [Example 45, 4-(4-((1S,5S)-1-cyclopropyl-3,8-diazabicyclo[3.2.1]octan-3-yl)-2-(((S)-2-(difluoromethylene)tetrahydro-1H-pyrrolizin-7a (5H)-yl)methoxy)-8-fluoropyrido [4,3-d]pyrimidin-7-yl)-5-ethynyl-6-fluoronaphthalen-2-ol] | 52.5 | – | – | IC50 (HPAC): 133 nM; IC50 (LS513): 163 nM |
| C#Cc1c(F)ccc2cc(O)cc(-c3ncc4c(N5C[C@@H]6CC[C@](CC)(C5)N6)nc(OC[C@@]56CCCN5C/C(=C\F)C6)nc4c3F)c12 [Example 55, 4-(4-((1R,5S)-1-ethyl-3,8-diazabicyclo[3.2.1]octan-3-yl)-8-fluoro-2-(((Z)-2-(fluoromethylene)tetrahydro-1H-pyrrolizin-7a (5H)-yl)methoxy)pyrido[4,3-d]pyrimidin-7-yl)-5-ethynyl-6-fl uoronaphthalen-2-ol] | 3 | 16.3 | – | IC50 (AGS): 1.3 nM |
| C#Cc1c(F)ccc2cc(O)cc(-c3ncc4c(N5C[C@@H]6CC[C@](COC)(C5)N6)nc(OC[C@@]56CCCN5C/C(=C\F)C6)nc4c3F)c12 [Example 58, 5-ethynyl-6-fluoro-4-(8-fluoro-2-(((Z)-2-(fluoromethylene)tetrahydro-1H-pyrrolizin-7a(5H)-yl)methoxy)-4-((1R,5S)-1-(methoxymethyl)-3,8-diazabicyclo [3.2.1]octan-3-yl)pyrido[4,3-d]pyrimidin-7-yl)naphthalen-2-ol] | 6 | 21.8 | 1.7 | – |
| [2H]C([2H])([2H])OC[C@@]12CC[C@@H](CN(c3nc(OC[C@@]45CCCN4C/C(=C\F)C5)nc4c(F)c(-c5cc(O)cc6ccc(F)c(C#C)c56)ncc34)C1)N2 [Example 61, 5-ethynyl-6-fluoro-4-(8-fluoro-2-(((Z)-2-(fluoromethylene)tetrahydro-1H-pyrrolizin-7a(5H)-yl)methoxy)-4-((1R,5S)-1-((methoxy-d3)methyl)-3,8-diazabicyclo[3.2.1]octan-3-yl)pyrido[4,3-d]pyrimidin-7-yl)naphthalen-2-ol] | 2.5 | 37.9 | – | IC50 (AGS): 3.4 nM |
| C#Cc1c(F)ccc2cc(O)cc(-c3ncc4c(N5C[C@@H]6CC[C@](CC)(C5)N6)nc(OC[C@@]56CCCN5C/C(=C/F)C6)nc4c3F)c12 [Example 80, 4-(4-((1R,5S)-1-ethyl-3,8-diazabicyclo[3.2.1]octan-3-yl)-8-fluoro-2-(((S,E)-2-(fluoromethylene)tetrahydro-1H-pyrrolizin-7a (5H)-yl)methoxy)pyrido[4,3-d]pyrimidin-7-yl)-5-ethynyl-6-fluoronaphthalen-2-ol] | 6.2 | 39.6 | 5.8 | – |
| [2H]C([2H])([2H])OC[C@@]12CC[C@@H](CN(c3nc(OC[C@@]45CCCN4C/C(=C/F)C5)nc4c(F)c(-c5cc(O)cc6ccc(F)c(C#C)c56)ncc34)C1)N2 [Example 84, 5-ethynyl-6-fluoro-4-(8-fluoro-2-(((S,E)-2-(fluoromethylene)tetrahydro-1H-pyrrolizin-7a (5H)-yl)methoxy)-4-((1R,5S)-1-((methoxy-d3)methyl)-3,8-diazabicyclo[3.2.1]octan-3-yl)pyrido[4,3-d]pyrimidin-7-yl) naphthalen-2-ol] | 3.9 | 59.3 | 11.4 | – |
| C#Cc1c(F)ccc2cc(O)cc(-c3ncc4c(N5C[C@@H]6CC[C@](C7CC7)(C5)N6)nc(OC[C@@]56CCCN5C/C(=C/F)C6)nc4c3F)c12 [Example 90, 4-(4-((1S,5S)-1-cyclopropyl-3,8-diazabicyclo[3.2.1]octan-3-yl)-8-fluoro-2-(((S,E)-2-(fluoromethylene)tetrahydro-1H-pyrrolizin-7a(5H)-yl)methoxy)pyrido[4,3-d]pyrimidin-7-yl)-5-ethynyl-6-fluoronaphthalen-2-ol] | 40.7 | 103 | 28.1 | – |
| [2H]C([2H])([2H])[C@@]12CC[C@@H](CN(c3nc(OC[C@@]45CCCN4C/C(=C\F)C5)nc4c(F)c(-c5cc(O)cc6ccc(F)c(C#C)c56)c(F)cc34)C1)N2 [Example 229, 4-(6,8-difluoro-2-(((S,Z)-2-(fluoro-methylene)tetrahydro-1H-pyrrolizin-7a(5H)-yl)methoxy)-4-((1R,5S)-1-(methyl-d3)-3,8-diazabicyclo[3.2.1]octan-3-yl)quinazolin-7-yl)-5-ethynyl-6-fluoro-naphthalen-2-ol] | 20.6 | – | – | IC50 (HPAC): 87.5 nM; IC50 (LS513): 33.3 nM |
| [2H]C([2H])([2H])[C@@]12CC[C@@H](CN(c3nc(OC[C@@]45CCCN4C/C(=C\F)C5)nc4c(F)c(-c5cc(N)cc6ccc(F)c(C#C)c56)ncc34)C1)N2 [Example 355, 5-ethynyl-6-fluoro-4-(8-fluoro-2-(((S,Z)-2-(fluoromethylene)tetrahydro-1H-pyrrolizin-7a(5H)-yl)methoxy)-4-((1R,5S)-1-(methyl-d3)-3,8-diazabicyclo[3.2.1]octan-3-yl)pyrido[4,3-d]pyrimidin-7-yl)naphthalen-2-amine] | 11 | 66.1 | 17.7 | AUC ([1]; iv, 2 mg/kg): 223 ng·h/mL; Cmax ([1]; iv, 2 mg/kg): 68.9 ng/mL; half-life ([1]; iv, 2 mg/kg): 7.2 h; AUC ([1]; po, 10 mg/kg): 466 ng·h/mL; Cmax ([1]; po, 10 mg/kg): 120 ng/mL; bioavailability ([1]; po, 10 mg/kg): 41.7%; half-life ([1]; po, 10 mg/kg): 9.1 h |
| [2H]C([2H])([2H])C([2H])([2H])[C@@]12CC[C@@H](CN(c3nc(OC[C@@]45CCCN4C/C(=C\F)C5)nc4c(F)c(-c5cccc6sc(N)c(C#N)c56)c(Cl)cc34)C1)N2 [Example 362, 2-amino-4-(6-chloro-4-((1R,5S)-1-(ethyl-d5)-3,8-diazabicyclo [3.2.1]octan-3-yl)-8-fluoro-2-(((S,Z)-2-(fluoromethylene)tetra-hydro-1H-pyrrolizin-7a(5H)-yl)methoxy)quinazolin-7-yl)benzo [b]thiophene-3-carbonitrile] | 27.7 | – | – | IC50 (HPAC): 61.8 nM; IC50 (LS513): 65.7 nM |

Source: patent publication US20260207605A1, “KRAS G12D INHIBITORS AND USES THEREOF” (Abbisko Therapeutics Co., Ltd., priority 2022, published 2026)
